Results as given in patent publication US5478825A, “5-(substituted amino)-1,2,4-triazolo (1,5-A) pyrimidine derivatives” (Egis Gyogyszergyar, priority 1991, dated 1995).
Where two headings read alike, the source gives them in different places.

Legend:
carrageen oedema = experiment: Antiinflammatory (Carrageen oedema inhibiting) effect; type: in vivo
Experimental: 4. Antiinflammatory (Carrageen oedema inhibiting) effect
The experiments were carried out by the method of Winter et al. [Winter, C. A. et al.: Proc. Soc. […] 0.1 ml of a 1 per cent carrageen suspension was injected subcutaneously into the plantar region of one of the hind paws. Rats were fasted for 12 hours and received drinking water ad libitum. One hour before treatment with the test compound the animals were hydrated orally with 30 ml/kg of tap water. The test compounds or the vehicle were administered p.o. in a volume of 10 ml/kg, then one hour later carrageen was applied. The volume of the treated paw was measured by a plethysmometer before and 3 hours after injection in such a way that displacement of the liquid arising from the volume alteration was indicated on a millimeter scale. The volume of the treated paws were compared with those of the control group.

right atrium = experiment: Positive inotropic effect in guinea pig (isolated right atrium); conditions: for Frequency: percentage change of atrial frequency; for Concentration force dP/dt: percentage change, 2 Hz, 37° C., concentration not given
Experimental: 2. Positive inotropic effect in guinea pig
The experiments were carried out by the method of Alousi [Alousi, A. A. et al.: J. Cardiovasc. […] Animals weighing 400-600 g were stunned with a blow to the head and exsanguinated. The heart was excised and the right atrium was removed and placed into a modified Tyrode solution of 37° C. It was then preloaded with 2.1 g and stimulated electrically at a rate of 2 Hz by rectangular pulses 0.5 ms in duration. The first derivative by time of the contraction force of the isolated organ (dP/dt) and the atrial frequency were recorded by a polygraph. From the data thus obtained percentage changes were calculated.

[1] = tested on: anaesthetized cat, left ventricular pressure (dP/dtmax); experiment: Positive inotropic effect in anaesthetized cat; type: in vivo; conditions: Felis catus, iv; for change in vivo at 1 mg/kg: 1 mg/kg i.v.; for change in vivo at 5 mg/kg: 5 mg/kg i.v.; for change in vivo at 10 mg/kg: 10 mg/kg i.v.
Experimental: 1. Positive inotropic effect in anaesthetized cat
The experiments were carried out on male and female cats anaesthetized with chloralose-urethane (40/300 mg/kg i.p. in a volume of 1 ml/kg). A polyethylene catheter was inserted into the left ventricle via the right subclavian artery. The inotropic activity was measured with the aid of the first derivative by time of the left ventricular pressure curve (dP/dtmax). The blood pressure was measured by means of another catheter introduced from the left femoral artery into the upper third part of the abdominal artery. A Statham P23Db transducer and HSE (Hugo Sachs Electronics) amplifiers were used for both pressure measurements. […] The test compounds were administered via a femoral venous cannula.

[2] = tested on: rats (vasopressin induced coronaria insufficiency); experiment: Antianginal effect in rats (vasopressin induced coronaria insufficiency); type: in vivo; conditions: Rattus norvegicus, iv; i.v. 2 minutes prior to vasopressin; T wave in ECG
Experimental: 3.a) Antianginal effect in rats
Rats weighing 180-220 g were narcotized with chloralose-urethane (70/700 mg/kg i.p.). The ECG was registered with needle electrodes in standard II leading. The experimental coronaria insufficiency was induced with vasopressin (1 NE/kg i.v.). The height of T wave in ECG was measured before and after the administration of vasopressin in both the control and treated groups. Test compounds were administered intravenously 2 minutes prior to the treatment with vasopressin.

motility of mice = experiment: Motility inhibiting activity; type: in vivo; conditions: 100 mg/kg, orally
Experimental: 5. Motility inhibiting activity
The tests were performed according to the method of Borsy et al. [Arch. Int. Pharmacodyn. 124, 1-2 (1960)]. Groups consisting of 3 mice each were treated orally with different doses of the compounds to be tested. Then the test animals were placed in a Dews equipment. In this equipment the number of interruptions of infrared beam within 30 minutes was counted. The inhibition is expressed as the percentage of the value obtained for the control animals.

coronary artery = experiment: Coronary flow test in dog; type: in vivo
Experimental: 3.b) Coronary flow test in dog
The experiments were carried out in young mongrel do, of both sexes weighing 10-26 kg. The test compounds were administered in 1-5-10 mg/kg doses intravenously. […] Mean arterial blood pressure was recorded on the carotis with a Statham gauge (type: p23Db). The changes of the myocardial contractile forces were followed isometrically with a microdynamometer (type: Experimetria, SG-01) affixed to the anterior wall of the left ventricle. Data were collected on the first derivate of the myocardial contractile force to follow the changes of the contraction and relaxation speed. […] The changes of the heart rate were also followed. The conductivity of the coronary artery (the ratio of the mean coronary flow and the mean blood pressure) was calculated. The mean values were evaluated statistically using Student's test as well as regression analysis and multiple t test.

[3] = Rattus norvegicus, po, 3 h; read-out: ID30

For CC(=O)Oc1ccccc1C(=O)O [Acetylsalicylic acid, reference compound], the ED30 (carrageen oedema; Rattus norvegicus, po, 3 h, read-out: ID30) was 62.4 mg/kg.

Nc1cc(-c2ccncc2)c[nH]c1=O [Amrinone, reference compound] was tested, and the Frequency (right atrium) was 28%, the “Concentration force dP/dt” value (right atrium) was 33% and the change in vivo at 1 mg/kg [1] was 19%. It also gave a change in vivo at 5 mg/kg [1] of 53.9% and a change in vivo at 10 mg/kg [1] of 48.3%.

C=CCN(CC=C)c1c2c(nc3nc(SC)nn13)CCC2 [Example 4, 5-(Diallylamino)-2-(methylthio)-6,7-dihydro-8H-cyclopenta[d]-1,2,4-triazolo[1,5-a]pyrimidine] gave an ED50 [2] of 1.97 mg/kg.

Work on CSc1nc2nc3c(c(NCc4ccccc4)n2n1)CCC3 [Example 6, 5-(Benzylamino)-2-(methylthio)-6,7-dihydro-8H-cyclopenta[d]-1,2,4-triazolo[1,5-a]pyrimidine] yielded an ED50 [2] of 1.49 mg/kg.

For CSc1nc2nc3c(c(NCc4ccc(Cl)cc4)n2n1)CCC3 [Example 7, 5-(4-Chlorobenzylamino)-2-(methylthio)-6,7-dihydro-8H-cyclopenta[d]-1,2,4-triazolo[1,5-a]pyrimidine], the ED30 (carrageen oedema; [3]) was 200 mg/kg.

CSc1nc2nc3c(c(N4CCOCC4)n2n1)CCC3 [Example 8, 2-(Methylthio)-5-morpholino-6,7-dihydro-8H-cyclopenta[d]-1,2,4-triazolo[1,5-a]pyrimidine] was tested, and the Frequency (right atrium) was -5%, the “Concentration force dP/dt” value (right atrium) was 86% and the change in vivo at 1 mg/kg [1] was 42.8%. It also gave a change in vivo at 5 mg/kg [1] of 76% and a change in vivo at 10 mg/kg [1] of 86.3%.

Work on CSc1nc2nc3c(c(N4CCN(CCO)CC4)n2n1)CCC3 [Example 9, 5-[4-(2-Hydroxyethyl)piperazino]-2-(methylthio)-6,7-dihydro-8H-cyclopenta[d]-1,2,4-triazolo[1,5-a]pyrimidine] yielded an ED50 [2] of ~2 mg/kg.

Compound CSc1nc2nc3c(c(NCCN4CCOCC4)n2n1)CCC3 [Example 10, 2-(Methylthio)-5-[N-(2-morpholinoethyl)]amino-6,7-dihydro-8H-cyclopenta[d]-1,2,4-triazolo[1,5-a]pyrimidine] has an ED50 [2] of 1.47 mg/kg and an ED30 (carrageen oedema; [3]) of 120 mg/kg.

With C1CCN(c2c3c(nc4nc(N5CCOCC5)nn24)CCC3)CC1 [Example 16, 2-Morpholino-5-piperidino-6,7-dihydro-8H-cyclopenta[d]-1,2,4-triazolo[1,5-a]pyrimidine] the “Change in motility vs control” value (motility of mice) was -53% and the ED50 [2] was 1.52 mg/kg.

CSc1nc2nc3c(c(NCCCN4CCOCC4)n2n1)CCCC3 [Example 19, 2-(Methylthio)-5-[N-(3-morpholinopropyl)]amino-6,7,8,9-tetrahydro-1,2,4-triazolo[5,1-b]quinazoline] was tested, and the Frequency (right atrium) was -2%, the “Concentration force dP/dt” value (right atrium) was 171% and the change in vivo at 1 mg/kg [1] was 35%. It also gave a change in vivo at 5 mg/kg [1] of 72.8% and a change in vivo at 10 mg/kg [1] of 90.6%.

Work on CN(C)CCCNc1c2c(nc3nc(N4CCOCC4)nn13)CCCC2 [Example 22, 5-[N-(3-Dimethylaminopropyl)]amino-2-morpholino-6,7,8,9-tetrahydro-1,2,4-triazolo[5,1-b]quinazoline] yielded an ED50 [2] of ~2 mg/kg.

For CCN(CC)c1c2c(nc3nc(N(C)C)nn13)CCCS2 [Example 26, 5-(Diethylamino)-2-(dimethylamino)-7,8-dihydro-9H-thiopyrano[3,2-d]-1,2,4-triazolo[1,5-a]pyrimidine], the ED30 (carrageen oedema; [3]) was 170 mg/kg.

CC(C)Sc1nc2nc3c(c(NCCCN4CCOCC4)n2n1)CCCC3 [Example 30, 2-(1-Methylethylthio)-5-[N-(3-morpholinopropyl)]amino-6,7,8,9-tetrahydro-1,2,4-triazolo[5,1-b]quinazoline] was tested, and the change in vivo at 1 mg/kg [1] was 22.3%, the change in vivo at 5 mg/kg [1] was 53.8% and the change in vivo at 10 mg/kg [1] was 86.8%. For the same compound, the “Conductivity of the coronary artery” value (coronary artery; 1 mg/kg i.v.) was 166%, the “Conductivity of the coronary artery” value (coronary artery; 5 mg/kg i.v.) was 397% and the “Conductivity of the coronary artery” value (coronary artery; 10 mg/kg i.v.) was 481%.

Work on CCSc1nc2nc3c(c(NCCN4CCOCC4)n2n1)CCCC3 [Example 31, 2-(Ethylthio)-5-[N-(2-morpholinoethyl)]amino-6,7,8,9-tetrahydro-1,2,4-triazolo[5,1-b]quinazoline] yielded a change in vivo at 1 mg/kg [1] of 46.5%, a change in vivo at 5 mg/kg [1] of 131% and a change in vivo at 10 mg/kg [1] of 129%.

For CSc1nc2nc3c(c(NCCN4CCOCC4)n2n1)CCCCCCCCCC3 [Example 35, 2-(Methylthio)-5-[N-(2-morpholinoethyl)]amino-6,7,8,9,10,11,12,13,14,15-decahydro-cyclododeca[d]-1,2,4-triazolo[1,5-a]pyrimidine], the Frequency (right atrium) was 8%, the “Concentration force dP/dt” value (right atrium) was 79% and the “Conductivity of the coronary artery” value (coronary artery; 1 mg/kg i.v.) was 256%. The “Conductivity of the coronary artery” value (coronary artery; 5 mg/kg i.v.) was 940% and the “Conductivity of the coronary artery” value (coronary artery; 10 mg/kg i.v.) was 1030%.

For CSc1nc2nc3c(c(NCCN4CCOCC4)n2n1)CCCCC3 [Example 37, 2-(Methylthio)-5-[N-(2-morpholinoethyl)]amino-6,7,8,9-tetrahydro-10H-cyclohepta[d]-1,2,4-triazolo[1,5-a]pyrimidine], the “Conductivity of the coronary artery” value (coronary artery; 1 mg/kg i.v.) was 188%, the “Conductivity of the coronary artery” value (coronary artery; 5 mg/kg i.v.) was 371% and the “Conductivity of the coronary artery” value (coronary artery; 10 mg/kg i.v.) was 780%.

In the case of CSc1nc2nc3c(c(NCCN4CCOCC4)n2n1)SCCC3 [Example 39, 2-(Methylthio)-5-[N-(2-morpholinoethyl)]amino-7,8-dihydro-9H-thiopyrano[3,2-d]-1,2,4-triazolo[1,5-a]pyrimidine], the Frequency (right atrium) is reported as -12% and the “Concentration force dP/dt” value (right atrium) is reported as 51%.

CSc1nc2nc3c(c(NCCN4CCOCC4)n2n1)CCN(Cc1ccccc1)C3 [Example 46, 8-Benzyl-2-(methylthio)-5-[N-(2-morpholinoethyl)]amino-6,7,8,9-tetrahydropyrido[3,4-d]-1,2,4-triazolo[1,5-a]pyrimidine] was tested, and the Frequency (right atrium) was -15% and the “Concentration force dP/dt” value (right atrium) was 80%.

Work on COc1ccc(CNc2c3c(nc4nc(SC)nn24)CCC3)cc1 [Example 50, 2-(Methylthio)-5-(4-methoxybenzylamino)-6,7-dihydro-8H-cyclopenta[d]-1,2,4-triazolo[1,5-a]pyrimidine] yielded an ED30 (carrageen oedema; [3]) of 190 mg/kg.

With CN(C)c1nc2nc3c(c(NCCCN4CCOCC4)n2n1)SCCC3 [Example 53, 2-(Dimethylamino)-5-[N-(3-morpholinopropyl)]amino7,8-dihydro-9H-thiopyrano[3,2-d]-1,2,4-triazolo[1,5-a]pyrimidine] the change in vivo at 0.5 mg/kg ([1]; 0.5 mg/kg i.v.) was 35.5%, the change in vivo at 1 mg/kg [1] was 48% and the change in vivo at 5 mg/kg [1] was 95%. For the same compound, the change in vivo at 10 mg/kg [1] was 93.6%.

For CSc1nc2nc3c(c(N4CCN(Cc5ccccc5)CC4)n2n1)CCC3 [Example 54, 5-(4-Benzylpiperazino)-2-(methylthio)-6,7-dihydro-8H-cyclopenta[d]-1,2,4-triazolo[1,5-a]pyrimidine], the ED30 (carrageen oedema; [3]) was 85 mg/kg.

CCOC(=O)CNc1c2c(nc3nc(SC)nn13)CCC2 [Example 60, Ethyl N-[2-methylthio-6,7-dihydro-8H-cyclopenta[d]-1,2,4-triazolo[1,5-a]pyrimidin-5-yl]glycinate] was tested, and the ED50 [2] was ~2 mg/kg.

CC(=O)Nc1ccc(O)cc1 [Paracetamol, reference compound] was tested, and the ED30 (carrageen oedema; [3]) was 195 mg/kg.
